# In patent US10662164B2, “Non-beta lactam antibiotics” (University of Notre Dame du Lac, priority 2014, dated 2020):
# Read-outs that look alike come from different tables or passages of the source.
# Columns and labels:
# E. faecalis 99 (Van R) = assay: MIC determination; format: cell-based; conditions: Enterococcus faecalis; vancomycin-resistant clinical isolate; Tables 1 and 5
# From the text: (§1) The ESKAPE organisms (E. faecium NCTC (ATCC 19734), S. aureus ATCC 29213, K. pneumonia ATCC 700603, A. baumannii ATCC 17961, P. aeruginosa ATCC 17853, E. aerogenes ATCC 35029) and E. coli ATCC 25922) in the initial screen, S. aureus ATCC 27660, S. epidermis ATCC 35547, S. haemolyticus ATCC 29970, S. oralis ATCC 9811, S. pyogenes ATCC 49399, B. cereus ATCC 13061, B. licheniformis ATCC 12759, and E. faecalis ATCC 29212 were purchased from the American Type Culture Collection (Manassas, Va., USA). S. aureus strains NRS100, NRS119, NRS120, VRS1, and VRS2 were obtained from the Network on Antimicrobial Resistance in Staphylococcus aureus (Chantilly, Va., USA). E. faecalis strains 201 and 99, and E. faecium strains 119-39A and 106 were collected from Wayne State University School of Medicine.
# (§2) The procedure for MIC determination was the same as previously reported (Tran et al., Am. J. Clin. Dermatol. 2015; doi 10.1007/S40257-015-0125-9).
# E. faecium NCTC 7171 = assay: MIC determination; format: cell-based, Enterococcus faecium; conditions: Enterococcus faecium
# [1] = Plasma protein binding, equilibrium dialysis; conditions: 10 μM, 37° C., 6 h
# Description: Protein binding for compounds 60b, 60c, 65b, 66b, 75b and 76b was determined in human plasma using equilibrium dialysis.
# Plasma protein binding was determined using human plasma and a rapid equilibrium dialysis device (Pierce Biotechnology, Thermo Scientific, Waltham, Mass., USA). Human plasma was thawed and centrifuged at 1200 g for 10 min to remove particulates. A […] aliquot of human plasma was added to the sample chamber and 350 μL of 0.1 M phosphate buffered saline (pH 7.4) containing […] sodium chloride was added to the adjacent chamber. A 2-μL aliquot of a stock solution of the compounds at a concentration of 1 mM in DMSO was diluted with human plasma to a final drug concentration of 10 μM and added to the sample chamber. The compounds were dialyzed at 37° C. in an orbital shaker for 6 h. Aliquots (50 μL) were taken from the buffer chamber (representing the free concentration) and from the plasma chamber (representing the total concentration) and mixed with 100 μL of internal standard in acetonitrile to a final concentration of 5 μM. Samples were analyzed by UPLC with UV detection at 285 nm. The plasma protein binding ratio (B %) was calculated according to the following equation: B%=(Cp−Cf)/Cp×100 where Cp and Cf are the total plasma concentration and the free concentration of compound, respectively.
# S. aureus ATCC 27660 [2] = assay: Mouse peritonitis model of infection; format: in vivo; conditions: for Mouse peritonitis (survived/total): iv at 20 mg/kg at 30 min and 7.5 h after infection, survival at 48 h
# Description: Compounds 60b, 60c, 65b, 66b, 75b and 76b were evaluated in the mouse peritonitis model of infection (Table 2). We used the ICR out-bred strain of mice that provides a heterogeneous population, similar to the human situation, thus, ensuring the relevance of the antibacterial effect. This animal model of infection is widely used, it is easy to carry out, and the end points (death or survival) are rapidly assessed, making it less resource-intensive compared to other infection models. In addition, excellent correlation between MIC and ED50 has been shown for 14 β-lactam antibiotics using this model (Kratochwil et al., Biochem. Pharmacol. 2002, 64, 1355). The mouse peritonitis infection model continues to be an important model for evaluation of the efficacy of antibiotics against human pathogens. We use the iv route of administration in initial efficacy studies, as this allows us to test the efficacy without knowledge of the oral bioavailability of the lead. Evaluation was done at 20 mg/kg.
# Female ICR mice (6-8 weeks old, ˜20-g body weight) were used for the PK and peritonitis studies. Animals were purchased from Harlan Laboratories, Inc. (Indianapolis, Ind., USA) and given Teklad 2019 Extruded Rodent Diet and water ad libitum. Mice were maintained in polycarbonate shoebox cages with ¼″ corncob (The Andersons Inc., Maumee, Ohio) and Alpha-dri (Sheperd Specialty Papers, Inc., Richland, Mich.) bedding under 12-h light/12-h dark cycle at 72±2° F.
# The mouse peritonitis model was used with S. aureus ATCC 27660, as described previously (Tran et al., Am. J. Clin. Dermatol. 2015; doi 10.1007/S40257-015-0125-9). The final bacterial inocula contained 5×10^7 cfu/mL and 5% mucin (Sigma-Aldrich Chemical Co., St Louis, Mo., USA). Just prior to inoculation, bacteria at 10^8 cfu/mL were mixed 1:1 with 10% mucin. Mice (n=6 per group) were given 0.5 mL of the bacterial inocula intraperitoneally. Mice were given two iv doses of the compounds at 30 min and 7.5 h after infection by tail vein injection. […] Mice were monitored for 48 h, at which time the number of surviving mice were counted.
# The effective dose that results in survival of 50% of the mice was determined using Probit analysis (XLSTAT, New York, N.Y.). Groups of six mice per dose level were evaluated in the mouse peritonitis infection model at iv doses of 2.5, 5, 7.5, 10, 15, and 20 mg/kg and after po doses at 2.5, 5, 10, 20, and 40 mg/kg. […]
# [3] = system: B. licheniformis ATCC 12759; assay: MIC determination; format: cell-based; conditions: Bacillus licheniformis, ATCC12759
# From the text: as §1, §2
# E. faecalis 201 (Van S) = assay: MIC determination; format: cell-based; conditions: Enterococcus faecalis
# From the text: as §1, §2
# E. faecalis ATCC 29212 = assay: MIC determination; format: cell-based; conditions: Enterococcus faecalis, ATCC29212
# From the text: as §1, §2
# E. faecium 106 (Van R) = assay: MIC determination; format: cell-based; conditions: Enterococcus faecium; vancomycin-resistant clinical isolate; Tables 1 and 5; read-out: MIC
# From the text: as §1, §2
# [4] = system: E. faecium 119-39A (Van S); assay: MIC determination; format: cell-based; conditions: Enterococcus faecium
# From the text: as §1, §2
# S. aureus NRS119 = assay: MIC determination; format: cell-based; conditions: Staphylococcus aureus
# From the text: as §1, §2
# S. aureus NRS120 = assay: MIC determination; format: cell-based; conditions: Staphylococcus aureus
# From the text: as §1, §2
# S. aureus ATCC 27660 [5] = assay: MIC determination; format: cell-based; conditions: Staphylococcus aureus, ATCC27660
# From the text: as §1, §2
# S. aureus VRS2 = assay: MIC determination; format: cell-based; conditions: Staphylococcus aureus
# From the text: as §1, §2
# [6] = NCTC7171, Table 1, read-out: MIC
# [7] = NCTC7171, Table 3.1, compounds of Schemes 2-4, read-out: E. faecium NCTC 7171 MIC
# [8] = Staphylococcus aureus, ATCC27660, iv, 2 doses given at 30 min and 7.5 h after infection, read-out: ED50
# [9] = Staphylococcus aureus, ATCC27660, po, single dose given at 1 h after infection, read-out: ED50
# [10] = vancomycin-susceptible clinical isolate, Tables 1 and 5, read-out: MIC
# [11] = quality-control strain, Tables 1 and 5, read-out: MIC
# [12] = mecA positive, linezolid-resistant, Tables 1 and 5, read-out: MIC
# [13] = mecA positive, resistant to methicillin, oxacillin, tetracycline, Tables 1 and 5, read-out: MIC
# [14] = vancomycin-resistant MRSA (vanA) isolate from Pennsylvania, Tables 1 and 5, read-out: MIC
smiles,measurement,setting,value
"FC(F)(F)c1ccc(Oc2ccc(-c3noc(-c4ccc5[nH]ccc5c4)n3)cc2)cc1 [Compound 75b, 5-(1H-Indol-5-yl)-3-(4-(4-(trifluoromethyl)phenoxy)phenyl)-1,2,4-oxadiazole]",MIC,E. faecalis 99 (Van R),16 µg/mL
same,MIC,E. faecium NCTC 7171; [6],2 to 4 µg/mL
same,MIC,E. faecium NCTC 7171; [7],2 µg/mL
same,Human plasma protein binding,[1],98.2±3.2%
same,ED50,S. aureus ATCC 27660 [2]; [8],7.6 mg/kg
same,ED50,"S. aureus ATCC 27660 [2]; Staphylococcus aureus, ATCC27660, po, 2 doses given at 30 min and 7.5 h after infection, read-out: ED50",1.7 mg/kg
same,ED50,S. aureus ATCC 27660 [2]; [9],3.1 mg/kg
same,Mouse peritonitis (survived/total),S. aureus ATCC 27660 [2],5/6
same,ED50,"S. aureus ATCC 27660 [2]; iv, 2 doses given at 30 min and 7.5 h after infection",7.6 mg/kg
same,ED50,"S. aureus ATCC 27660 [2]; po, 2 doses given at 30 min and 7.5 h after infection",1.7 mg/kg
same,ED50,"S. aureus ATCC 27660 [2]; po, single dose given at 1 h after infection",3.1 mg/kg
same,"ED50, fold better than that of 1",S. aureus ATCC 27660 [2]; single po dose given at 1 h after infection,14 fold
"Fc1ccc(Oc2ccc(-c3noc(-c4n[nH]cc4Cl)n3)cc2)cc1 [Compound 60c, 5-(4-Chloro-1H-pyrazol-3-yl)-3-(4-(4-fluorophenoxy)phenyl)-1,2,4-oxadiazole]",MIC,"[3]; Tables 1 and 5, read-out: MIC",> 128 µg/mL
same,MIC,E. faecalis 201 (Van S); [10],> 128 µg/mL
same,MIC,E. faecalis 99 (Van R),> 128 µg/mL
same,MIC,E. faecalis ATCC 29212; [11],> 128 µg/mL
same,MIC,E. faecium 106 (Van R),> 128 µg/mL
same,MIC,[4]; [10],> 128 µg/mL
same,MIC,S. aureus NRS119; [12],2 µg/mL
same,MIC,S. aureus NRS120; [12],64 µg/mL
same,MIC,E. faecium NCTC 7171; [6],32 µg/mL
same,MIC,E. faecium NCTC 7171; [7],8 µg/mL
same,Human plasma protein binding,[1],94.5 ± 2.1%
same,Mouse peritonitis (survived/total),S. aureus ATCC 27660 [2],2/6
Oc1ccc(-c2nc(-c3ccc(Oc4ccc(C(F)(F)F)cc4)cc3)no2)cc1 [Compound 1],MIC,"[3]; Tables 1 and 5, read-out: MIC",2 µg/mL
same,MIC,E. faecalis 201 (Van S); [10],2 µg/mL
same,MIC,E. faecalis 99 (Van R),2 µg/mL
same,MIC,E. faecalis ATCC 29212; [11],2 µg/mL
same,MIC,E. faecium 106 (Van R),2 µg/mL
same,MIC,[4]; [10],1 µg/mL
same,MIC,S. aureus ATCC 27660 [5]; [13],2 µg/mL
same,MIC,S. aureus NRS119; [12],2 µg/mL
same,MIC,S. aureus NRS120; [12],2 µg/mL
same,MIC,S. aureus VRS2; [14],2 µg/mL
same,MIC,E. faecium NCTC 7171; [6],2 µg/mL
same,MIC,E. faecium NCTC 7171; [7],1 µg/mL
same,Human plasma protein binding,[1],99.9 ± 0.1%
same,ED50,S. aureus ATCC 27660 [2]; [8],40 mg/kg
same,ED50,S. aureus ATCC 27660 [2]; [9],44 mg/kg
"FC(F)(F)c1ccc(Oc2ccc(-c3noc(-c4c[nH]cn4)n3)cc2)cc1 [Compound 76b, 5-(1H-Imidazol-4-yl)-3-(4-(4-(trifluoromethyl)phenoxy)phenyl)-1,2,4-oxadiazole]",MIC,E. faecium NCTC 7171; [6],8 to 16 µg/mL
same,MIC,E. faecium NCTC 7171; [7],4 µg/mL
same,Human plasma protein binding,[1],93.5 ± 2.4%
same,Mouse peritonitis (survived/total),S. aureus ATCC 27660 [2],3/6
"C#Cc1c[nH]nc1-c1nc(-c2ccc(Oc3ccc(C(F)(F)F)cc3)cc2)no1 [Compound 66b, 5-(4-Ethynyl-1H-pyrazol-3-yl)-3-(4-(4-(trifluoromethyl)phenoxy)phenyl)-1,2,4-oxadiazole]",MIC,"[3]; Tables 1 and 5, read-out: MIC",> 128 µg/mL
same,MIC,E. faecalis 201 (Van S); [10],> 128 µg/mL
same,MIC,E. faecalis 99 (Van R),> 128 µg/mL
same,MIC,E. faecalis ATCC 29212; [11],> 128 µg/mL
same,MIC,S. aureus ATCC 27660 [5]; [13],0.5 µg/mL
same,MIC,S. aureus NRS119; [12],32 µg/mL
same,MIC,S. aureus NRS120; [12],> 128 µg/mL
same,MIC,S. aureus VRS2; [14],0.5 µg/mL
same,MIC,E. faecium NCTC 7171; [7],> 128 µg/mL
same,Human plasma protein binding,[1],96.4 ± 2.7%
same,Mouse peritonitis (survived/total),S. aureus ATCC 27660 [2],2/6
"CC(C)Nc1c[nH]nc1-c1nc(-c2ccc(Oc3ccc(C(F)(F)F)cc3)cc2)no1 [Compound 65b, N-Isopropyl-3-(3-(4-(4-(trifluoromethyl)phenoxy)phenyl)-1,2,4-oxadiazol-5-yl)-1H-pyrazol-4-amine]",MIC,[3],> 128 µg/mL
same,MIC,E. faecalis 201 (Van S),> 128 µg/mL
same,MIC,E. faecalis ATCC 29212,> 128 µg/mL
same,MIC,[4],> 128 µg/mL
same,MIC,S. aureus ATCC 27660 [5],0.5 µg/mL
same,MIC,S. aureus NRS119,2 µg/mL
same,MIC,S. aureus NRS120,> 128 µg/mL
same,MIC,S. aureus VRS2; MRSA,4 µg/mL
same,MIC,E. faecium NCTC 7171; NCTC7171,32 µg/mL
same,MIC,"E. faecium NCTC 7171; NCTC7171, read-out: E. faecium NCTC 7171 MIC",> 128 µg/mL
same,Human plasma protein binding,[1],91.6 ± 0.3%
same,Mouse peritonitis (survived/total),S. aureus ATCC 27660 [2],1/6
"FC(F)(F)c1ccc(Oc2ccc(-c3noc(-c4n[nH]cc4Cl)n3)cc2)cc1 [Compound 60b, 5-(4-Chloro-1H-pyrazol-3-yl)-3-(4-(4-(trifluoromethyl)phenoxy)phenyl)-1,2,4-oxadiazole]",MIC,"[3]; Tables 1 and 5, read-out: MIC",> 128 µg/mL
same,MIC,E. faecalis 201 (Van S); [10],> 128 µg/mL
same,MIC,E. faecalis 99 (Van R),> 128 µg/mL
same,MIC,E. faecalis ATCC 29212; [11],> 128 µg/mL
same,MIC,E. faecium 106 (Van R),> 128 µg/mL
same,MIC,[4]; [10],> 128 µg/mL
same,MIC,S. aureus ATCC 27660 [5]; [13],2 µg/mL
same,MIC,S. aureus NRS120; [12],64 µg/mL
same,MIC,S. aureus VRS2; [14],0.5 to 1 µg/mL
same,MIC,E. faecium NCTC 7171; [6],16 µg/mL
same,MIC,E. faecium NCTC 7171; [7],2 µg/mL
same,Human plasma protein binding,[1],97.8 ± 0.3%
same,Mouse peritonitis (survived/total),S. aureus ATCC 27660 [2],4/6
